Legend:
Aβ1-40 = experiment: Measurement of Aβ1-40 in culture medium of 7W WT APP751 CHO cells by ELISA; type: cell-based, Chinese hamster; settings: for Aβ1-40 (% of control): CHO cells that overexpress APP751, zero = below the detection limit of the assay; for activity at 5 µM: Cricetulus griseus, Table 1, 5 μM test compound, CHO cells stably transfected with human APP751, culture medium, ELISA, control DMSO, 0 = no detectable amount
Aβ1-42 = experiment: Measurement of Aβ1-42 in culture medium of 7W WT APP751 CHO cells by ELISA; type: cell-based, Chinese hamster; settings: for Aβ1-42 (% of control): CHO cells that overexpress APP751, zero = below the detection limit of the assay; for activity at 5 µM: Cricetulus griseus, Table 1, 5 μM test compound, CHO cells stably transfected with human APP751, culture medium, ELISA, control DMSO, 0 = no detectable amount, read-out: Aβ1-42 (% of control)
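Note: 5 µM test compound but RI-coded compounds at 10 µM for 24 hours.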

## COC(=O)C1=CN(CC2CCCO2)C=C(C(=O)OC)C1c1cccc(OC)c1OC (stereo not drawn) [ST051459, methyl 4-(2,3-dimethoxyphenyl)-5-(methoxycarbonyl)-1-(oxolan-2-ylmethyl)-1,4-dihydropyridine-3-carboxylate]
Aβ1-40
  Aβ1-40 (% of control): 70.09 % of control
Aβ1-42
  Aβ1-42 (% of control): 85.96 % of control

## COCCOC(=O)C1=C(C)NC2=C(C(=O)CC(c3ccc(Cl)cc3)C2)C1c1ccc([N+](=O)[O-])cc1 (stereo not drawn) [ST016971, 2-methoxyethyl 7-(4-chlorophenyl)-2-methyl-4-(4-nitrophenyl)-5-oxo-1,4,6,7,8-pentahydroquinoline-3-carboxylate]
Aβ1-40
  activity at 5 µM: 27.3%
Aβ1-42
  activity at 5 µM: 86.2%

## CC1=C(C(=O)OCCc2ccccc2)C(c2ccc(N(C)C)cc2)C2=C(CC(C)(C)CC2=O)N1 (stereo not drawn) [ST052231, 2-phenylethyl 4-[4-(dimethylamino)phenyl]-2,7,7-trimethyl-5-oxo-1,4,6,7,8-pentahydroquinoline-3-carboxylate]
Aβ1-40
  activity at 5 µM: 38.8%
Aβ1-42
  activity at 5 µM: 63.5%

## COc1ccc(COC(=O)C2=C(C)NC3=C(C(=O)CCC3)C2c2cccs2)cc1 (stereo not drawn) [ST052371, (4-methoxyphenyl)methyl 2-methyl-5-oxo-4-(2-thienyl)-1,4,6,7,8-pentahydroquinoline-3-carboxylate]
Aβ1-40
  activity at 5 µM: 59.8%
Aβ1-42
  activity at 5 µM: 92.5%

## CC1=C(C(=O)OCCc2ccccc2)C(c2ccc(C)cc2)C2=C(CCCC2=O)N1 (stereo not drawn) [ST015076, 2-phenylethyl 2-methyl-4-(4-methylphenyl)-5-oxo-1,4,6,7,8-pentahydroquinoline-3-carboxylate]
Aβ1-40
  activity at 5 µM: 58.9%
Aβ1-42
  activity at 5 µM: 98.6%

## CCCCCOC(=O)C1=C(C)NC2=C(C(=O)CC(C)(C)C2)C1c1ccc(Cl)c(Cl)c1 (stereo not drawn) [ST216061, pentyl 4-(3,4-dichlorophenyl)-2,7,7-trimethyl-5-oxo-1,4,6,7,8-pentahydroquinoline-3-carboxylate]
Aβ1-40
  activity at 5 µM: 0%
Aβ1-42
  activity at 5 µM: 0%

## CCOC(=O)C1=C(C)NC2=C(C(=O)CCC2)C1c1cc(Br)c(C)s1 (stereo not drawn) [ST020910, ethyl 4-(4-bromo-5-methyl(2-thienyl))-2-methyl-5-oxo-1,4,6,7,8-pentahydroquinoline-3-carboxylate]
Aβ1-40
  activity at 5 µM: 47.3%
Aβ1-42
  activity at 5 µM: 69.8%

## COCCOC(=O)C1=C(C)NC2=C(C(=O)CCC2)C1c1cc(OC)c(OC)cc1Br (stereo not drawn) [ST052462, 2-methoxyethyl 4-(2-bromo-4,5-dimethoxyphenyl)-2-methyl-5-oxo-1,4,6,7,8-pentahydroquinoline-3-carboxylate]
Aβ1-40
  activity at 5 µM: 61.8%
Aβ1-42
  activity at 5 µM: 94.3%

## CCOC(=O)C1=C(N)n2c(s/c(=C\c3ccc(C(C)C)cc3)c2=O)=C(S(=O)(=O)c2ccccc2)C1c1ccc(C(C)C)cc1 (stereo not drawn) [ST011326]
Aβ1-40
  Aβ1-40 (% of control): 54.94 % of control
Aβ1-42
  Aβ1-42 (% of control): 72.95 % of control

## COC(=O)C1=CN(Cc2ccc(F)cc2)C=C(C(=O)OC)C1c1ccc(Cl)cc1 [ST024836, methyl 4-(4-chlorophenyl)-1-[(4-fluorophenyl)methyl]-5-(methoxycarbonyl)-1,4-dihydropyridine-3-carboxylate]
Aβ1-40
  Aβ1-40 (% of control): 26.41 % of control
Aβ1-42
  Aβ1-42 (% of control): 82.55 % of control

## CC1=C(C(=O)Nc2ccccc2)C(c2cccs2)C(C#N)=C(SCC(=O)Nc2ccccc2C)N1 (stereo not drawn) [ST050837, 2-[3-cyano-6-methyl-5-(N-phenylcarbamoyl)-4-(2-thienyl)(2-1,4-dihydropyridylthio)]-N-(2-methylphenyl)acetamide]
Aβ1-40
  Aβ1-40 (% of control): 95.44 % of control
Aβ1-42
  Aβ1-42 (% of control): 41.29 % of control

## COc1ccc(C2CC(=O)C3=C(C2)NC(C)=C(C(=O)OCc2ccccc2)C3c2ccncc2)cc1 (stereo not drawn) [ST017266, phenylmethyl 7-(4-methoxyphenyl)-2-methyl-5-oxo-4-(4-pyridyl)-1,4,6,7,8-pentahydroquinoline-3-carboxylate]
Aβ1-40
  activity at 5 µM: 65.5%
Aβ1-42
  activity at 5 µM: 64.6%

## CC1=C(C(=O)Nc2ccccc2)C(c2ccsc2)C(C#N)=C(SCC(=O)Nc2ccccc2)N1 (stereo not drawn) [RI_6]
Aβ1-40
  Aβ1-40 (% of control): 77.7 % of control
Aβ1-42
  Aβ1-42 (% of control): 65.1 % of control

## COc1cccc(NC(=O)CSC2=C(C#N)C(c3ccccc3)C(C(=O)Nc3ccc(Cl)cc3)=C(C)N2)c1 (stereo not drawn) [RI_55]
Aβ1-40
  Aβ1-40 (% of control): 48.1 % of control
Aβ1-42
  Aβ1-42 (% of control): 40.3 % of control

## CC1=C(C(=O)OC2CCCCC2)C(c2ccc3c(c2)OCO3)C2=C(CC(C)(C)CC2=O)N1 (stereo not drawn) [ST216920, cyclohexyl 4-(2H-benzo[3,4-d]1,3-dioxolen-5-yl)-2,7,7-trimethyl-5-oxo-1,4,6,7,8-pentahydroquinoline-3-carboxylate]
Aβ1-40
  activity at 5 µM: 1.4%
Aβ1-42
  activity at 5 µM: 3.82%

## CCOC(=O)C1=C(C)NC2=C(C(=O)CC(c3ccccc3)C2)C1c1ccccn1 (stereo not drawn) [ST017251, ethyl 2-methyl-5-oxo-7-phenyl-4-(2-pyridyl)-1,4,6,7,8-pentahydroquinoline-3-carboxylate]
Aβ1-40
  activity at 5 µM: 90.4%
Aβ1-42
  activity at 5 µM: 34.3%

## CC1=C(C(=O)OCCc2ccccc2)C(c2ccc(C)cc2)C2=C(CC(C)(C)CC2=O)N1 (stereo not drawn) [ST015099, 2-phenylethyl 2,7,7-trimethyl-4-(4-methylphenyl)-5-oxo-1,4,6,7,8-pentahydroquinoline-3-carboxylate]
Aβ1-40
  activity at 5 µM: 14.8%
Aβ1-42
  activity at 5 µM: 33.8%

## N#CC1=C(N)Nc2c(c(=O)oc3ccccc23)C1c1ccc(Cl)cc1 (stereo not drawn) [ST014144, 2-amino-4-(4-chlorophenyl)-5-oxo-1,4-dihydrochromeno[4,3-b]pyridine-3-carbonitrile]
Aβ1-40
  Aβ1-40 (% of control): 66.08 % of control
Aβ1-42
  Aβ1-42 (% of control): 66.02 % of control

## CCOC(=O)C1=C(C)NC2=C(C(=O)CC(c3ccc(OC)cc3)C2)C1c1ccc(OC)cc1 (stereo not drawn) [ST017136, ethyl 4,7-bis(4-methoxyphenyl)-2-methyl-5-oxo-1,4,6,7,8-pentahydroquinoline-3-carboxylate]
Aβ1-40
  activity at 5 µM: 87.7%
Aβ1-42
  activity at 5 µM: 66.1%

## COCCOC(=O)C1=C(C)NC2=C(C(=O)CCC2)C1c1ccc(O)cc1 (stereo not drawn) [ST013254, 2-methoxyethyl 4-(4-hydroxyphenyl)-2-methyl-5-oxo-1,4,6,7,8-pentahydroquinoline-3-carboxylate]
Aβ1-40
  activity at 5 µM: 49.6%
Aβ1-42
  activity at 5 µM: 76.9%

## CCN(CC)c1ccc(C2C(C(=O)OC3CCCC3)=C(C)NC3=C2C(=O)CC(C)(C)C3)cc1 (stereo not drawn) [ST013083, cyclopentyl 4-[4-(diethylamino)phenyl]-2,7,7-trimethyl-5-oxo-1,4,6,7,8-pentahydroquinoline-3-carboxylate]
Aβ1-40
  activity at 5 µM: 0%
Aβ1-42
  activity at 5 µM: 91.6%

## CC1=C(C(=O)Nc2ccccc2)C(c2c(Cl)cccc2Cl)C(C(=O)Nc2ccccc2)=C(C)N1 [ST217080, [4-(2,6-dichlorophenyl)-2,6-dimethyl-5-(N-phenylcarbamoyl)(3-1,4-dihydropyridyl)]-N-benzamide]
Aβ1-40
  Aβ1-40 (% of control): 65.54 % of control
Aβ1-42
  Aβ1-42 (% of control): 0 % of control

## CC1=C(C(=O)Nc2ccccc2)C(c2ccsc2)C(C#N)=C(S)N1 (stereo not drawn) [RI_29]
Aβ1-40
  Aβ1-40 (% of control): 79.7 % of control
Aβ1-42
  Aβ1-42 (% of control): 100 % of control

## COC(=O)C1=CN(Cc2ccc(F)cc2)C=C(C(=O)OC)C1c1ccc(OC)cc1OC [ST038081, methyl 4-(2,4-dimethoxyphenyl)-1-[(4-fluorophenyl)methyl]-5-(methoxycarbonyl)-1,4-dihydropyridine-3-carboxylate]
Aβ1-40
  Aβ1-40 (% of control): 36.22 % of control
Aβ1-42
  Aβ1-42 (% of control): 92.93 % of control

## CC1=C(C(=O)OC(C)C)C(c2cccnc2)C2=C(CCCC2=O)N1 (stereo not drawn) [ST013077, methylethyl 2-methyl-5-oxo-4-(3-pyridyl)-1,4,6,7,8-pentahydroquinoline-3-carboxylate]
Aβ1-40
  activity at 5 µM: 27.4%
Aβ1-42
  activity at 5 µM: 97.8%

## CCOC(=O)C1=C(C)NC2=C(C(=O)CCC2)C1c1ccc(C(=O)OC)cc1 (stereo not drawn) [ST013173, methyl 4-[3-(ethoxycarbonyl)-2-methyl-5-oxo-4-1,4,6,7,8-pentahydroquinolyl]benzoate]
Aβ1-40
  activity at 5 µM: 39.2%
Aβ1-42
  activity at 5 µM: 78.1%

## CCc1cccc(NC(=O)CSC2=C(C#N)C(c3cccs3)C(C(=O)Nc3ccccc3)=C(C)N2)c1 (stereo not drawn) [RI_45]
Aβ1-40
  Aβ1-40 (% of control): 82.7 % of control
Aβ1-42
  Aβ1-42 (% of control): 61.3 % of control

## COC(=O)C1=C(C)NC2=C(C(=O)CC(c3ccc(OC)c(OC)c3)C2)C1c1cc(OC)c(OC)c(OC)c1 (stereo not drawn) [ST024574, methyl 7-(3,4-dimethoxyphenyl)-2-methyl-5-oxo-4-(3,4,5-trimethoxyphenyl)-1,4,6,7,8-pentahydroquinoline-3-carboxylate]
Aβ1-40
  activity at 5 µM: 65.3%
Aβ1-42
  activity at 5 µM: 83.6%

## CCCCCOC(=O)C1=C(C)NC2=C(C(=O)CCC2)C1c1cccc(Cl)c1 (stereo not drawn) [ST013152, pentyl 4-(3-chlorophenyl)-2-methyl-5-oxo-1,4,6,7,8-pentahydroquinoline-3-carboxylate]
Aβ1-40
  activity at 5 µM: 22%
Aβ1-42
  activity at 5 µM: 33.2%

## CC1=C(C(=O)OCCc2ccccc2)C(c2ccccc2OC(C)C)C2=C(CC(C)(C)CC2=O)N1 (stereo not drawn) [ST015049, 2-phenylethyl 2,7,7-trimethyl-4-[2-(methylethoxy)phenyl]-5-oxo-1,4,6,7,8-pentahydroquinoline-3-carboxylate]
Aβ1-40
  activity at 5 µM: 0%
Aβ1-42
  activity at 5 µM: 62.4%

## CCCCOC(=O)C1=C(C)NC2=C(C(=O)CC(C)(C)C2)C1c1ccc(Cl)cc1 (stereo not drawn) [ST024431, butyl 4-(4-chlorophenyl)-2,7,7-trimethyl-5-oxo-1,4,6,7,8-pentahydroquinoline-3-carboxylate]
Aβ1-40
  activity at 5 µM: 0%
Aβ1-42
  activity at 5 µM: 0%

## COc1cc(C2C(C(=O)OCc3ccccc3)=C(C)NC3=C2C(=O)CCC3)cc(Br)c1O (stereo not drawn) [ST013249, phenylmethyl 4-(3-bromo-4-hydroxy-5-methoxyphenyl)-2-methyl-5-oxo-1,4,6,7,8-pentahydroquinoline-3-carboxylate]
Aβ1-40
  activity at 5 µM: 0%
Aβ1-42
  activity at 5 µM: 68%

## CC1=C(C(=O)Nc2ccccc2)C(c2cccs2)C(C#N)=C(SCC(=O)Nc2ccccc2F)N1 (stereo not drawn) [RI_12]
Aβ1-40
  Aβ1-40 (% of control): 68.4 % of control
Aβ1-42
  Aβ1-42 (% of control): 82.5 % of control
